# Results published in US9809586B2, “Inhibitors of collagen prolyl 4-hydroxylase” (WISCONSIN ALUMNI RESEARCH FOUNDATION, priority 2015, dated 2017).
# Columns and labels:
# human CP4H1 = molecular target: T1, human CP4H1 (Homo sapiens, UniProt P13674); assay: Assay of human CP4H1 activity in the presence of inhibitors; format: biochemical
# T1 construct: made in house; host or cells: Origami B(DE3) Escherichia coli
# Experimental: The catalytic activity of human CP4H1 was assayed as described previously.^35 Briefly, activity assays were carried out at 30° C. in 100 μL Tris-HCl buffer, pH 7.8, containing human CP4H1 (100 nM), inhibitor (0-500 μM), substrate (dansylGlyProProGlyOEt, 500 μM), FeSO4 (50 μM), BSA (1 mg/mL), catalase (0.1 mg/mL), sodium ascorbate (2 mM), DTT (100 μM), and α-ketoglutarate (100 μM). Reactions were pre-incubated with or without inhibitor for 2 min at 30° C., after which the reaction was initiated by the addition of α-ketoglutarate. After 15 min, reactions were quenched by boiling for 45 s and centrifuged at 10,000 g. The supernatant (20-50 μL) was injected into a Nucleodur® C18 Gravity reversed-phase column (4.6×250 mm, 5 μm particle size) from Macherey-Nagel (Bethlehem, Pa.). The column was eluted at 1 mL/min with a gradient (20 min) of aqueous acetonitrile (20-45% v/v) containing 0.1% v/v TFA. The absorbance of the eluent was monitored at 289 nm. All assays were performed in triplicate. Data are reported as activity relative to control reactions lacking inhibitor, where catalytic activity is determined from the percent conversion of substrate to product. Dose-response curves were generated for each inhibitor by plotting the relative activity versus the log of the inhibitor concentration. IC50-values for each inhibitor were interpolated from the data by non-linear regression using the sigmoidal dose-response function available in Prism.
# human PHD2 = molecular target: T2, human PHD2 (Homo sapiens, UniProt Q9GZT9); assay: Assay of human PHD2 activity in the presence of inhibitors; format: biochemical; conditions: 10 μM compound
# T2 construct: made in house
# T2 sequence (Q9GZT9 181-426 limits assumed): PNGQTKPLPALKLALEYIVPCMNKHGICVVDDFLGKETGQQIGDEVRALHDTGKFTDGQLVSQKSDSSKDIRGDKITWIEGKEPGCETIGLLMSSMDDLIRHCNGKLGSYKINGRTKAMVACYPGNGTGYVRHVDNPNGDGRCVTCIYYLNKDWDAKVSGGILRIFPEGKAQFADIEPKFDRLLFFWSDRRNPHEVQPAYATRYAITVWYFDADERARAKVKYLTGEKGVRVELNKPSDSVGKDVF
# Experimental: The catalytic activity of human PHD2 was assayed as described previously.^36 Briefly, activity assays were carried out at 30° C. in 100 μL Tris-HCl buffer, pH 7.8, containing human NHis6-PHD2181-426 (5 μM), inhibitor (0-50 μM), substrate (HIF-1α peptide556-574, 50 μM), FeSO4 (50 μM), BSA (1 mg/mL), catalase (0.3 mg/mL), sodium ascorbate (2 mM), DTT (1 mM), and α-ketoglutarate (35 μM). Reactions mixtures were pre-incubated with or without inhibitor for 2 min at 30° C., after which the reaction was initiated by the addition of α-ketoglutarate. After 10 minutes, reactions were quenched by boiling for 60 s and centrifuged at 10,000 g. The supernatant (50 μL) was injected into a Nucleodur® C18 Gravity reversed-phase column (4.6×250 mm, 5 μm particle size) from Macherey-Nagel (Bethlehem, Pa.). The column was eluted at 1 mL/min with a gradient (34 min) of 5-56% aqueous acetonitrile containing 0.1% v/v TFA. The absorbance of the eluent was monitored at 218 nm. All assays were performed in triplicate. Data is reported as activity relative to control reactions lacking inhibitor, where activity is determined from the percent conversion of substrate to product.
# [1] = titration of 20 μM FeSO4; bipy; read-out: Fe20-EC50; cited from earlier work
# IRPs = assay: Electrophoretic mobility shift assay for IRE-binding by IRPs from treated cells; format: cell-based, human; conditions: treated MDA-MB-231 cells, 24 h, radiolabeled RNA ligand
# Experimental: The resultant pellets (˜50 μL) were washed with PBS and then lysed using a protocol described previously.^41 Briefly, cell pellets were resuspended in 200 μL of cell lysis buffer, which was 20 mM Hepes-HCl buffer, pH 7.4, containing sodium pyrophosphate (10 mM), sodium fluoride (50 mM), β-glycerophosphate (50 mM), EDTA (5 mM), GTP (1 mM), sodium orthovanadate (1 mM), benzamidine hydrochloride (2 mM), Nonidet NP-40 (0.5% v/v), p-nitrophenyl p′-guanidinobenzoate-HCl (25 μg/mL), DTT (1 mM), leupeptin (40 μg/mL), pepstatin (4 μg/mL), SBTI (100 μg/mL), MG132 (10 μM), PMSF (200 μM), and BHT (5 μg/mL) by vortexing and lysed on ice by vortexing every few min. After 15 min, the lysates were centrifuged at 14,000 rpm and the supernatants aliquoted and stored at −80° C. until analysis by an electrophoretic mobility shift assay (EMSA).
# EMSAs were performed and quantified essentially as described previously.^42 Briefly [^32P]-L-ferritin IRE (1 nM RNA, specific radioactivity ˜7,000 dpm/fmol) was incubated with lysate protein (2.5 μg as determined by the Bradford assay) in binding buffer for 10 min on ice. Heparin was added (to 0.5 mg/mL), and the reaction mixture was incubated for an additional 5 min on ice before separating bound and free RNA on a nondenaturing polyacrylamide gel at ambient temperature.
# [2] = cited from earlier work
# MDA-MB-231 cells = conditions: 500 μM; cited from earlier work
# breast cancer = conditions: mouse model of breast cancer, Gilkes et al.; cited from earlier work
# T1 sequence (P13674 18-534): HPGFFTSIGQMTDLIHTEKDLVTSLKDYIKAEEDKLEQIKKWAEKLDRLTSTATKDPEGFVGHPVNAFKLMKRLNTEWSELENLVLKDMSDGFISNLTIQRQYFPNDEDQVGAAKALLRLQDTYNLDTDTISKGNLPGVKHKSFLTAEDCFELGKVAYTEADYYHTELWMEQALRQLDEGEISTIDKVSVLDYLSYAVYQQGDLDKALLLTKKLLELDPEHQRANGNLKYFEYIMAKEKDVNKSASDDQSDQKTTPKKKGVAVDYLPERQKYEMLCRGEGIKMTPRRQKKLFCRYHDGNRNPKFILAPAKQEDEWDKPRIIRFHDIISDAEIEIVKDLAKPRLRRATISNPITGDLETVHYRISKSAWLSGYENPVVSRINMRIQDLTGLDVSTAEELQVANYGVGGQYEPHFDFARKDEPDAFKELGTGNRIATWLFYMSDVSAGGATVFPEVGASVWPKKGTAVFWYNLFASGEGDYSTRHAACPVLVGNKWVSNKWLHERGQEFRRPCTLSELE
# T1 sequence (P07237 18-508 partner): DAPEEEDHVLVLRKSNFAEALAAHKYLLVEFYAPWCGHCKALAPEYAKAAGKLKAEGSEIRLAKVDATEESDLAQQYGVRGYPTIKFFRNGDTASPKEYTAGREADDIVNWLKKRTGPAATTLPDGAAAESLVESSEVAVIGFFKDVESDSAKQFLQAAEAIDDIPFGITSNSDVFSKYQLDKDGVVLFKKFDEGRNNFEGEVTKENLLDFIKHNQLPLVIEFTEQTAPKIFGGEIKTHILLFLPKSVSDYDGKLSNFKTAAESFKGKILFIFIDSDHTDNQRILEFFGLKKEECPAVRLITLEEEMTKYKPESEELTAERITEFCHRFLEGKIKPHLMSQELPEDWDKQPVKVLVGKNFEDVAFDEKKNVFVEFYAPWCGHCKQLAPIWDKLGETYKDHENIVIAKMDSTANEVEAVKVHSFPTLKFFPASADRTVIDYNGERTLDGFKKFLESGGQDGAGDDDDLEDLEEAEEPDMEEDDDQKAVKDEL
"Inhibition of catalytic activity of human CP4H1 in initial screen (human CP4H1; 10 μM compound, 50 μM FeSO4)","IC50 (human CP4H1; dose-response, mean of three independent experiments)",Potency relative to pyoxDC (human CP4H1; from dose-response IC50 values),Inhibition of human PHD2 in screen (human PHD2),Structure (SMILES),EC50 [1],RNA binding by IRPs (IRPs),Heteroaryl pKa (ref.) ([2]; conjugate acid of pyridine (bipy) or the nonpyridyl ring),"pKa ([2]; conjugate acid of the entire compound, bipy)",Collagen secretion (MDA-MB-231 cells),Tumor fibrosis and metastasis (breast cancer)
inhibitors,2600 ± 100 nM,approximately 10 fold,only weakly,"O=C(O)c1ccc(-c2ncc(C(=O)O)[nH]2)nc1 [pyimDC, 2-(5-Carboxy-1-H-imidazol-2-yl)pyridine-5-carboxylic Acid]",–,–,–,–,–,–
–,–,–,–,"c1ccc(-c2ccccn2)nc1 [bipy, 2,2′-bipyridine, reference compound]",43 ± 2 µM,significant increases,5.2 (48),4.3,–,–
–,–,–,–,"CCOC(=O)c1ccc(O)c(O)c1 [EDHB, Ethyl dihydroxybenzoate]",–,significant increases,–,–,diminish collagen secretion significantly,decreases tumor fibrosis and metastasis
